Test results reported in patent US10233177B2, “TRPV1 vanilloid receptor antagonists with a bicyclic portion” (Serentrix LLC, priority 2010, dated 2019).
Like-named read-outs stand apart in the source and are kept apart here.

Biological target: TRPV1 (Rattus norvegicus (Rat), UniProt O35433)
Assay: Ca2+ fluorescence measurements in cultured rat dorsal root ganglia neurons (capsaicin-induced calcium uptake)
Format: cell-based
Settings: for inhibition at 0.3 µM: DRG neuron
[1] = Table 1, formula IA-C, 300 nM against calcium uptake induced by 30 nM capsaicin, rat DRG neurons, read-out: % inhibition at 300 nM
[2] = 300 nM, rat DRG neurons, read-out: abolition of capsaicin response at 300 nM
[3] = capsaicin-induced calcium uptake, rat DRG neurons, read-out: inhibition of the calcium uptake
[4] = Table 1, against capsaicin-evoked [Ca2+]i mobilization, rat DRG neurons, read-out: IC50
[5] = rat DRG neurons, read-out: IC50 against capsaicin-evoked [Ca2+]i mobilization

Sequence of TRPV1 (O35433 whole entry): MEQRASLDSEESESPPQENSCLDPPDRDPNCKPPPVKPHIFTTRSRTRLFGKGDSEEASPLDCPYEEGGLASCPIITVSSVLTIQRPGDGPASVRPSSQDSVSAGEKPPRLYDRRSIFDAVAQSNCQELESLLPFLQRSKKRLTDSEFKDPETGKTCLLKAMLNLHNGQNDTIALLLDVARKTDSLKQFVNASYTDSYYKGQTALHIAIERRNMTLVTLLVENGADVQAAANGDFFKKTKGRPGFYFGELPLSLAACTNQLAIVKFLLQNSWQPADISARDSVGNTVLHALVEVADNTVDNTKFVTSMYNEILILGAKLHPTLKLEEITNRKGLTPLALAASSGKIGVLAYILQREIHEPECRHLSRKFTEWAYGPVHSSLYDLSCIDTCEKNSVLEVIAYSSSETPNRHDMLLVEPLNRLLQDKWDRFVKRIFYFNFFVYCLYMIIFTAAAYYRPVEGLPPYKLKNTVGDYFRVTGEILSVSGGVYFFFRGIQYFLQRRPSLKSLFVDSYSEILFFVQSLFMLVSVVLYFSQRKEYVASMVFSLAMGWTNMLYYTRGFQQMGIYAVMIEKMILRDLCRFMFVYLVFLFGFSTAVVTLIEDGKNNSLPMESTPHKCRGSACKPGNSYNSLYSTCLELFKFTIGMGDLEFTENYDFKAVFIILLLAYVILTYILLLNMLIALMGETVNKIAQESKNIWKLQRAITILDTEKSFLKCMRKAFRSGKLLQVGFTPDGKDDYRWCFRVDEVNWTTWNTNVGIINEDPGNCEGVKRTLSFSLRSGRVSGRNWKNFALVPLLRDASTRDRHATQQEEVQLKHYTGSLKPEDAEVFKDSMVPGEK

Row | inhibition at 0.3 µM [1] | inhibition at 0.3 µM [2] | inhibition at 0.3 µM [3] | IC50 [4] | IC50 [5] | SMILES | inhibition at 0.3 µM (read-out: % inhibition at 300 nM)
1 | – | – | – | – | – | O=C1COc2cccc(OC(=O)NCc3ccc(C(F)(F)F)cc3)c2N1 [Example 65, 3,4-dihydro-3-oxo-2H-benzo[b][1,4]oxazin-5-yl 4-(trifluoromethyl)benzylcarbamate] | 4%
2 | 71% | – | – | – | – | O=C(NCc1ccc(C(F)(F)F)nc1)Nc1cccc2[nH]c(=O)[nH]c12 [Example 66, 1-(2-oxo-1,3-dihydrobenzimidazol-4-yl)-3-[[6-(trifluoromethyl)-3-pyridyl]methyl]urea] | –
3 | 100% | ~100% | > 80% | 20 nM | – | CC(C)Oc1cc(C(F)(F)F)ccc1CNC(=O)Nc1cccc2[nH]c(=O)[nH]c12 [Example 67, 1-[[2-isopropoxy-4-(trifluoromethyl)phenyl]methyl]-3-(2-oxo-1,3-dihydrobenzimidazol-4-yl)urea] | –
4 | 93% | – | > 80% | – | – | CC(C)Oc1nc(C(F)(F)F)ccc1CNC(=O)Nc1cccc2[nH]c(=O)[nH]c12 [Example 68, 1-[[2-isopropoxy-6-(trifluoromethyl)-3-pyridyl]methyl]-3-(2-oxo-1,3-dihydrobenzimidazol-4-yl)urea] | –
5 | 80% | – | > 80% | 92 nM | – | CN(C)c1nc(C(F)(F)F)ccc1CNC(=O)Nc1cccc2[nH]c(=O)[nH]c12 [Example 69, 1-[[2-dimethylamino-6-(trifluoromethyl)-3-pyridyl]methyl]-3-(2-oxo-1,3-dihydrobenzimidazol-4-yl)urea] | –
6 | 98% | ~100% | > 80% | – | – | CC(C)(C)c1ccc(CNC(=O)Nc2cccc3[nH]c(=O)[nH]c23)cc1 [Example 70, 1-[(4-tert-butylphenyl)methyl]-3-(2-oxo-1,3-dihydrobenzimidazol-4-yl)urea] | –
7 | 40% | – | – | 6 nM | – | CN(C)CCOc1nc(C(F)(F)F)ccc1CNC(=O)Nc1cccc2[nH]c(=O)[nH]c12 [Example 72, 1-[[2-(2-dimethylaminoethoxy)-6-(trifluoromethyl)-3-pyridyl]methyl]-3-(2-oxo-1,3-dihydrobenzimidazol-4-yl)urea] | –
8 | 25% | – | – | 1.8 nM | 0.1 nM | CN(C)CCOc1cc(C(F)(F)F)ccc1CNC(=O)Nc1cccc2[nH]c(=O)[nH]c12 [Example 73, 1-[[2-(2-dimethylaminoethoxy)-4-(trifluoromethyl)phenyl]methyl]-3-(2-oxo-1,3-dihydrobenzimidazol-4-yl)urea] | –
9 | 100% | ~100% | > 80% | – | – | CC(C)(C)c1ccc(CNC(=O)Nc2cccc3[nH]c(=O)[nH]c23)c(Cl)c1 [Example 74, 1-[(4-tert-butyl-2-chloro-phenyl)methyl]-3-(2-oxo-1,3-dihydrobenzimidazol-4-yl)urea] | –
10 | 100% | ~100% | > 80% | 0.84 nM | 0.84 nM | CC(C)(C)c1ccc(CNC(=O)Nc2cccc3[nH]c(=O)[nH]c23)c(N2CCCC2)c1 [Example 75, 1-[(4-tert-butyl-2-pyrrolidin-1-yl-phenyl)methyl]-3-(2-oxo-1,3-dihydrobenzimidazol-4-yl)urea] | –
11 | 40% | – | – | – | – | O=C1COc2c(cccc2NC(=O)NCc2ccc(C(F)(F)F)o2)N1 [Example 76, 1-(3-oxo-4H-1,4-benzoxazin-8-yl)-3-[[5-(trifluoromethyl)-2-furyl]methyl]urea] | –
12 | 71% | – | – | – | – | O=C1COc2c(cccc2NC(=O)NCc2ccc(C(F)(F)F)nc2)N1 [Example 77, 1-(3-oxo-4H-1,4-benzoxazin-8-yl)-3-[[6-(trifluoromethyl)-3-pyridyl]methyl]urea] | –
13 | 100% | ~100% | > 80% | – | 0.61 nM | O=C1COc2c(cccc2NC(=O)NCc2ccc(C(F)(F)F)nc2N2CCCCC2)N1 [Example 78, 1-(3-oxo-4H-1,4-benzoxazin-8-yl)-3-[[2-(1-piperidyl)-6-(trifluoromethyl)-3-pyridyl]methyl]urea] | –
